Counter-ions that a name gives are not always drawn.
Experiments:
human CB1 receptor = biological target: T1, human CB1 receptor (Homo sapiens, UniProt P21554); assay: In-vitro efficacy and potency at the human CB1 receptor expressed in CHO cells (luciferase reporter gene assay); format: cell-based; settings: CHO cells expressing human CB1 receptor and luciferase reporter gene; 5 h incubation at 37° C.
T1 construct: expressed in transfected cells; host or cells: Chinese Hamster Ovary (CHO) cells
T1 sequence (P21554 whole entry): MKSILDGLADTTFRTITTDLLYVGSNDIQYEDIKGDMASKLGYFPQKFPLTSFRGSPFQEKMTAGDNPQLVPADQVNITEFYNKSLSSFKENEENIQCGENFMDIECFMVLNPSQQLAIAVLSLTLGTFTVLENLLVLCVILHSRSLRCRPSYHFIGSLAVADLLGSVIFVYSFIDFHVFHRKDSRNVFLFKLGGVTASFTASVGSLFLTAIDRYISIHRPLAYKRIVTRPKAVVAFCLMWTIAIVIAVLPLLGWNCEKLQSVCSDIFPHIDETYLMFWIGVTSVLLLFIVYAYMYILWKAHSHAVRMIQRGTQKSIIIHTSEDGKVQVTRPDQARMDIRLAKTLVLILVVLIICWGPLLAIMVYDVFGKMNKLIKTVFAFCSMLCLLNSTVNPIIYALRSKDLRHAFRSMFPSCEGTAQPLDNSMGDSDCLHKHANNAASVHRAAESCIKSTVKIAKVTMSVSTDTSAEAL
Experimental: In-vitro Determination of Efficacy and Potency at the Human CB1 Receptor Expressed in CHO Cells
Chinese Hamster Ovary (CHO) cells expressing the human CB1 receptor and a luciferase reporter gene were suspended in phenol red/serum free DMEM/F-12 nut mix containing penicillin/streptomycin (50 U/50 μg/ml) and fungizone (1 μg/ml) and seeded into 96 well plates at a density of 3×10^4 cells per well (100 μl final volume). Cells were incubated overnight (approx. 18 h at 37° C., 5% CO2/95% air) prior to assay. […] The stock solutions (10 μl) were added directly to the relevant wells. The plates were incubated at 37° C. for 5 h to allow agonist-induced expression of the luciferase enzyme. Under subdued light, LucLite substrate (Packard; reconstituted as per manufacturer's instructions; 100 μl) was added to each well. Plates were covered with Top Seal and then incubated at room temperature for 5 minutes before counting on the Packard TopCount (single photon counting, 0.01 minute count time, 5 minute count delay).

Mice = assay: Tail flick latency in mice; format: in vivo; settings: Mus musculus, iv, administered intravenously, ED50 calculated at Tmax, significantly increased the tail flick latency, read-out: ED50 (increase of tail flick latency)
Experimental: Tail Flick Latency in Mice
Mice were trained to sit still in a tail flick apparatus (Ugo Basile, Italy) whilst tail flick latency was measured. The tail was exposed to a focused beam of radiant heat at a point approximately 2.5 cm from the tip. Tail flick latency was defined as the interval between the appliance of the thermal stimulus and withdrawal of the tail. A 12 second cut-off was employed to prevent tissue damage. Four groups of eight mice were treated with vehicle or one of three doses of the test compound, administered intravenously (vehicle: 10% Tween-80 in saline; injection volume 10 ml/kg). Tail flick latency was measured before administration of the test compound and at regular intervals (typically 20, 40 and 60 minutes) after compound administration. The ED50 was calculated at Tmax.

Structure (SMILES) | EC50 (human CB1 receptor) [nM] | ED50 (Mice) [µmol/kg]
COc1cccc2c(-c3noc([C@H]4CCCN4C)n3)cn(CC3CCCCC3)c12 [Example 2G, (R)-1-(Cyclohexyl)methyl-7-methoxy-3-[5-(1-methylpyrrolidin-2-yl)-[1,2,4]oxadiazol-3-yl]-1H-indole, hydrochloride salt] | 31.6 | < 5
CCN(CC)Cc1nc(-c2cn3c4c(cccc24)OC[C@H]3C2CCCCC2)ns1 [Example 13, (R)-3-Cyclohexyl-6-{5-[(diethylamino)methyl]-[1,2,4]-thiadiazol-3-yl}-2,3-dihydropyrrolo[1,2,3-de]-1,4-benzoxazine, hydrochloride salt] | 7.94 | < 5
Fc1cccc2c(-c3nsc(CN4CCCC4)n3)cn(CC3CCOCC3)c12 [Example 14B, 7-fluoro-3-{5-[(pyrrolidin-1-yl)methyl]-[1,2,4]-thiadiazol-3-yl}1-(tetrahydropyran-4-yl)methyl-1H-indole, hydrochloride salt] | 50.1 | < 5
CCN(CCOC)Cc1nc(-c2cn(CC3CCOCC3)c3c(Cl)cccc23)ns1 [Example 15A, 7-chloro-3-(5-{[N-ethyl-N-(2-methoxyethyl)amino]methyl}-[1,2,4]-thiadiazol-3-yl)-1-(tetrahydropyran-4-yl)methyl-1H-indole, hydrochloride salt] | 10 | < 5
Clc1cccc2c(-c3nsc(CN4CCCC4)n3)cn(CC3CCOCC3)c12 [Example 15B, 7-chloro-3-{5-[(Pyrrolidin-1-yl)methyl]-[1,2,4]-thiadiazol-3-yl}1-(tetrahydropyran-4-yl)methyl-1H-indole, hydrochloride salt] | 20 | < 5
CCN(CCO)Cc1nc(-c2cn(CC3CCOCC3)c3c(Cl)cccc23)ns1 [Example 15C, 7-chloro-3-(5-{[N-ethyl-N-(2-hydroxyethyl)amino]methyl}-[1,2,4]-thiadiazol-3-yl)-1-(tetrahydropyran-4-yl)methyl-1H-indole] | 10 | < 5
COCCN(Cc1csc(-c2cn(CC3CCCCC3)c3c(Cl)cccc23)n1)C(C)C [Example 20, 7-Chloro-1-(cyclohexyl)methyl-3-(4-{[N-isopropyl-N-(2-methoxyethyl)amino]methyl}-[1,3]-thiazol-2-yl)-1H-indole, hydrochloride salt] | 5.01 | < 5
CC(C)N(CCO)Cc1csc(-c2cn(CC3CCOCC3)c3c(Cl)cccc23)n1 [Example 23B, 7-Chloro-3-(4-{[N-(2-hydroxyethyl)-N-isopropylamino]methyl}-1,3-thiazol-2-yl)-1-(tetrahydropyran-4-yl)methyl-1H-indole] | – | < 5
CCN(CCO)Cc1csc(-c2cn(CC3CCOCC3)c3c(Cl)cccc23)n1 [Example 23C, 7-Chloro-3-(4-{[N-ethyl-N-(2-hydroxyethyl)amino]methyl}-[1,3]-thiazol-2-yl)-1-(tetrahydropyran-4-yl)methyl-1H-indole] | – | < 5
CCN(CC)Cc1ncc(-c2cn(CC3CCCCC3)c3c(OC)cccc23)o1 [Example 32, 1-(Cyclohexyl)methyl-3-{2-[(diethylamino)methyl]-[1,3]-oxazol-5-yl}-7-methoxy-1H-indole, hydrochloride salt] | 50.1 | –
CCN1Cc2snc(-c3cn(CC4CCCCC4)c4c(OC)cccc34)c2C1 [Example 33, 1-(Cyclohexyl)methyl-3-(5-ethyl-5,6-dihydro-4H-pyrrolo[3,4-d]isothiazol-3-yl)-7-methoxy-1H-indole, hydrochloride salt] | 79.4 | –
COc1cccc2c(-c3nnc(CN4CCCC4)s3)cn(CC3CCCCC3)c12 [Example 38, 1-(Cyclohexyl)methyl-7-methoxy-3-{5-[(pyrrolidin-1-yl)methyl]-[1,3,4]-thiadiazol-2-yl}-1H-indole, hydrochloride salt] | 79.4 | –
CC1(C)CCCN1Cc1nc(-c2cn(CC3CCOCC3)c3c(Cl)cccc23)no1 [Example 39, 7-Chloro-3-{5-[(2,2-dimethyl-pyrolidin-1-yl)methyl]-[1,2,4]oxadiazol-3-yl}-1-(tetrahydropyran-4-yl)methyl-1H-indole, hydrochloride salt] | 31.6 | < 5

Source: US7700634B2, “(Indol-3-yl) heterocycle derivatives as agonists of the cannabinoid CB1 receptor” (N.V. Organon, priority 2004, dated 2010)
